Each structure is given as a SMILES string. Values after ≈ are worked out from the molar mass of the structure shown. Active and inactive are the calls of the source.

As a reminder, the MIC is the smallest concentration in the dilution series that meets the test's criterion for growth inhibition. A higher MIC goes with a need for much substance. Usually EC50 stands for the concentration giving half of the maximal effect.

One experiment has as its system Staphylococcus aureus. The experiment in a line: Antibacterial activity against Staphylococcus aureus after 16 to 18 hr by serial dilution method. In kind it is functional.
A further experiment deals with Escherichia coli. In words: Antibacterial activity against Escherichia coli after 16 to 18 hr by serial dilution method. The experiment is classed as functional.
Experiment [1] concerns HeLa. The experiment in a line: Cytotoxicity against Homo sapiens (human) HeLa cells after 48 hr by MTT assay. The experiment is classed as functional, cell-based. For orientation: Tetrazolium assays rely on reduction of a dye to a coloured formazan, in cell work by metabolically active cells.
Experiment [2] has as its system HeLa. In words: Cytotoxicity against Homo sapiens (human) HeLa cells assessed as cell death at 100 uM after 48 hr by MTT assay. The experiment is classed as functional.
The subject of experiment [3] is HeLa. In words: Cytotoxicity against Homo sapiens (human) HeLa cells assessed as cell death at 50 uM after 48 hr by MTT assay. In kind it is functional.
The subject of experiment [4] is HeLa. The experiment in a line: Cytotoxicity against Homo sapiens (human) HeLa cells assessed as cell death at 25 uM after 48 hr by MTT assay. The experiment is classed as functional.
Experiment [5] concerns HeLa. In words: Cytotoxicity against Homo sapiens (human) HeLa cells assessed as cell death at 12.5 uM after 48 hr by MTT assay. In kind it is functional.
The subject of a further experiment is Candida albicans. In words: Antifungal activity against Candida albicans after 16 to 18 hr by serial dilution method. The experiment is classed as functional.
The next experiment relates to Bacillus cereus. The experiment in a line: Antibacterial activity against Bacillus cereus after 16 to 18 hr by serial dilution method. In kind it is functional.
The subject of another experiment is Pseudomonas aeruginosa. The experiment in a line: Antibacterial activity against Pseudomonas aeruginosa after 16 to 18 hr by serial dilution method. The experiment is classed as functional.
The subject of experiment [6] is HeLa. The experiment in a line: Cytotoxicity against Homo sapiens (human) HeLa cells assessed as cell death at 2.5 uM after 48 hr by MTT assay. In kind it is functional.

With `CS(=O)(=O)c1ccc(Cc2n[nH]c(=S)n2/N=C/c2c(F)cccc2Cl)cc1`, the MIC with Staphylococcus aureus stood at 6.25 µg/mL (≈ 14.7 µM); against Escherichia coli, 6.25 µg/mL (≈ 14.7 µM); against Candida albicans, 3.12 µg/mL (≈ 7.35 µM); in the experiment with Bacillus cereus it was 3.12 µg/mL (≈ 7.35 µM); against Pseudomonas aeruginosa, 3.12 µg/mL (≈ 7.35 µM). For the same compound, the midpoint of the response in the experiment on HeLa [1], the EC50, lay at 25 µM. The Activity with HeLa [2] was found to be 77.28%; with HeLa [3] it was 70.55%; in the experiment with HeLa [4], 55.32%; with HeLa [5], 49.84%.

Consider `COc1ccc2cc(/C=N/n3c(Cc4ccc(S(C)(=O)=O)cc4)n[nH]c3=S)ccc2c1`, for which the MIC against Staphylococcus aureus, against Escherichia coli, against Candida albicans, in the experiment with Bacillus cereus and with Pseudomonas aeruginosa was 6.25 µg/mL (≈ 13.8 µM) in each case. In addition, the EC50 with HeLa [1] is 50 µM. Further, the Activity in the experiment on HeLa [2] is reported as 64.6%; with HeLa [3], 54.13%; with HeLa [4] it was 42.01%; in the experiment with HeLa [5] it was 43.71%.

Turning to `CS(=O)(=O)c1ccc(Cc2n[nH]c(=S)n2/N=C/c2ccccc2F)cc1`, the MIC in the experiment with Staphylococcus aureus came to 6.25 µg/mL (≈ 16 µM); with Escherichia coli, 3.12 µg/mL (≈ 8 µM); against Candida albicans, 3.12 µg/mL (≈ 8 µM); with Bacillus cereus, 3.12 µg/mL (≈ 8 µM); against Pseudomonas aeruginosa, 6.25 µg/mL (≈ 16 µM). The EC50 with HeLa [1] was over 100 µM. Further, the Activity came to 28.08% with HeLa [2], 21.9% in the experiment on HeLa [3], 14.03% in the experiment on HeLa [4] and 16.48% with HeLa [5].

With `CS(=O)(=O)c1ccc(Cc2n[nH]c(=S)n2/N=C/c2cccs2)cc1`, the MIC was determined as 12.5 µg/mL (≈ 33 µM) with Staphylococcus aureus; 3.12 µg/mL (≈ 8.26 µM) against Escherichia coli; 3.12 µg/mL (≈ 8.26 µM) in the experiment with Candida albicans; 12.5 µg/mL (≈ 33 µM) in the experiment with Bacillus cereus; 6.25 µg/mL (≈ 16.5 µM) in the experiment on Pseudomonas aeruginosa. The compound also displayed an EC50 with HeLa [1] of 100 µM. Besides, the Activity worked out at 61.09% in the experiment on HeLa [2], 48.59% in the experiment with HeLa [3], 33.33% in the experiment with HeLa [4] and 28.69% in the experiment on HeLa [5].

As for `CS(=O)(=O)c1ccc(Cc2n[nH]c(=S)n2/N=C/c2ccc(-c3ccccc3)cc2)cc1`, the MIC in the experiment on Staphylococcus aureus is 6.25 µg/mL (≈ 13.9 µM); with Escherichia coli, 3.12 µg/mL (≈ 6.97 µM); with Candida albicans, 6.25 µg/mL (≈ 13.9 µM); with Bacillus cereus it was 6.25 µg/mL (≈ 13.9 µM); in the experiment with Pseudomonas aeruginosa, 6.25 µg/mL (≈ 13.9 µM). The EC50 in the experiment with HeLa [1] turned out to be 50 µM. In addition, the Activity with HeLa [2] was determined as 69.54%; with HeLa [3], 61.56%; in the experiment with HeLa [4], 37.32%; in the experiment with HeLa [5] it was 30.44%.

`CSc1ccc(/C=N/n2c(Cc3ccc(S(C)(=O)=O)cc3)n[nH]c2=S)cc1`: the MIC with Staphylococcus aureus, in the experiment with Escherichia coli, against Candida albicans, with Bacillus cereus and against Pseudomonas aeruginosa was 3.12 µg/mL (≈ 7.47 µM) each time. The EC50 in the experiment with HeLa [1] came to 50 µM. For the same compound, the Activity amounted to 71.86% in the experiment on HeLa [2], 57.5% in the experiment with HeLa [3], 32.66% in the experiment on HeLa [4] and 27.94% in the experiment on HeLa [5].

With `CC1(C)S[C@@H]2[C@H](NC(=O)Cc3ccccc3)C(=O)N2[C@H]1C(=O)O` [PENICILLIN G], the MIC in the experiment with Staphylococcus aureus, against Escherichia coli, against Bacillus cereus and against Pseudomonas aeruginosa was 0.097 µg/mL (≈ 0.29 µM) throughout.

Take `OC(Cn1cncn1)(Cn1cncn1)c1ccc(F)cc1F` [FLUCONAZOLE]: the MIC with Candida albicans is 0.78 µg/mL (≈ 2.55 µM).

Regarding `CS(=O)(=O)c1ccc(Cc2n[nH]c(=S)n2/N=C/c2ccc(Cl)cc2)cc1`, the MIC with Staphylococcus aureus was determined as 6.25 µg/mL (≈ 15.4 µM); against Escherichia coli, 12.5 µg/mL (≈ 30.7 µM); in the experiment on Candida albicans, 1.56 µg/mL (≈ 3.84 µM); against Bacillus cereus, 6.25 µg/mL (≈ 15.4 µM); in the experiment with Pseudomonas aeruginosa, 6.25 µg/mL (≈ 15.4 µM). The compound also came in with an EC50 in the experiment with HeLa [1] of 50 µM. The Activity is 57.04% in the experiment with HeLa [2], 53.99% in the experiment with HeLa [3], 47.51% in the experiment with HeLa [4] and 44.73% with HeLa [5].

As for `CS(=O)(=O)c1ccc(Cc2n[nH]c(=S)n2/N=C/c2ccccc2Cl)cc1`, the MIC in the experiment on Staphylococcus aureus stood at 12.5 µg/mL (≈ 30.7 µM); in the experiment with Escherichia coli, 6.25 µg/mL (≈ 15.4 µM); against Candida albicans, 3.12 µg/mL (≈ 7.68 µM); in the experiment on Bacillus cereus, 6.25 µg/mL (≈ 15.4 µM); against Pseudomonas aeruginosa it was 3.12 µg/mL (≈ 7.68 µM). For the same compound, the Activity with HeLa [2] is recorded as 76.53%; with HeLa [3] it was 42.65%; in the experiment on HeLa [4], 36.26%; in the experiment with HeLa [5], 34.65%.

As to `CS(=O)(=O)c1ccc(Cc2n[nH]c(=S)n2/N=C/c2cccnc2)cc1`, the MIC turned out to be 6.25 µg/mL (≈ 16.7 µM) in the experiment with Staphylococcus aureus; 6.25 µg/mL (≈ 16.7 µM) against Escherichia coli; 6.25 µg/mL (≈ 16.7 µM) against Candida albicans; 12.5 µg/mL (≈ 33.5 µM) with Bacillus cereus; 6.25 µg/mL (≈ 16.7 µM) in the experiment on Pseudomonas aeruginosa. The compound further had an EC50 in the experiment on HeLa [1] of over 100 µM. Besides, the Activity is reported as 45.1% in the experiment with HeLa [2], 14% with HeLa [3], 19.36% in the experiment on HeLa [4] and 16.89% with HeLa [5].

As to `COc1cccc2c1C(=O)c1c(O)c3c(c(O)c1C2=O)C[C@@](O)(C(=O)CO)C[C@@H]3O[C@H]1C[C@H](N)[C@H](O)[C@H](C)O1` [DOXORUBICIN], the response with HeLa [1] was half-maximal at 2.5 µM (EC50). For the same compound, the Activity with HeLa [6] was 78.2%.

In the case of `CS(=O)(=O)c1ccc(Cc2n[nH]c(=S)n2/N=C/c2ccc(F)cc2)cc1`, the MIC is 12.5 µg/mL (≈ 32 µM) in the experiment on Staphylococcus aureus; 6.25 µg/mL (≈ 16 µM) with Escherichia coli; 3.12 µg/mL (≈ 8 µM) with Candida albicans; 6.25 µg/mL (≈ 16 µM) in the experiment on Bacillus cereus; 6.25 µg/mL (≈ 16 µM) in the experiment with Pseudomonas aeruginosa. Also, the EC50 in the experiment on HeLa [1] amounted to 100 µM. For the same compound, the figures for the Activity in the experiment on HeLa [2], with HeLa [3] and with HeLa [5] were 57.79%, 26.25% and 2.8%, respectively. Also, the outcome with HeLa [4] was inactive.

The values are drawn from ChEMBL document CHEMBL3045095, “Synthesis and biological evaluation of some Schiff bases of 4-amino-5-(4-methylsulfonyl)benzyl-2,4-dihydro-3H-[1,2,4]-triazole-3-thione” (Med Chem Res, 2013).
